Measured values taken from PubChem BioAssay (NCI).
Where “and” joins values, the source holds several entries; their conditions need not be identical. Equal entries are not always repeated.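 Results reflect a 48-hour exposure of cells in 96-well plates to compound at five concentrations. GI50 = concentration required for 50% inhibition of growth. TGI: total growth inhibition.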

Assays:
Assay in all cases: NCI-60 cell line screen, 48 h
CAKI-1 renal = tested on: CAKI-1 renal
K-562 leukemia = tested on: K-562 leukemia
OVCAR-3 ovarian = tested on: OVCAR-3 ovarian
RPMI-8226 leukemia = tested on: RPMI-8226 leukemia
SF-539 CNS = tested on: SF-539 CNS
T-47D breast = tested on: T-47D breast
TK-10 renal = tested on: TK-10 renal
UO-31 renal = tested on: UO-31 renal
DLD-1 colon = tested on: DLD-1 colon
DMS 273 small cell lung = tested on: DMS 273 small cell lung

SMILES | TGI (CAKI-1 renal) | TGI (K-562 leukemia) | TGI (OVCAR-3 ovarian) | TGI (RPMI-8226 leukemia) | TGI (SF-539 CNS) | TGI (T-47D breast) | TGI (TK-10 renal) | TGI (UO-31 renal) | TGI (DLD-1 colon) | TGI (DMS 273 small cell lung) | GI50 (DLD-1 colon) | GI50 (DMS 273 small cell lung) | GI50 (T-47D breast)
CCOC(=O)Oc1ccc2c(c1)c(=O)c1c(NCCCN(CC)CC)ccc3nnn2c31 | 9.75 µM | > 52.7 µM | 20 µM | 10.1 µM | 19 µM | 31.1 µM | 17.5 µM | 15 µM |  |  |  |  | 
CC(C)OP(=O)(OC(C)C)C(Nc1cccc(C(F)(F)F)c1)c1ccccc1 (stereo not drawn) | > 100 µM | > 100 µM | > 100 µM | 87.3 µM | > 100 µM | > 100 µM | > 100 µM | > 100 µM |  |  |  |  | 
COc1cc2c(cc1OCCCCN1CCN(CCCCOc3cc4c(cc3OC)C(=O)N3CCC[C@H]3C=N4)CC1)N=C[C@@H]1CCCN1C2=O | 0.182 µM | > 11.3 µM | 0.0636 µM | < 0.0241 µM | 0.0692 µM | 3.53 µM | 0.263 µM | > 100 µM |  |  |  |  | 
O=C1Nc2ccc(Br)cc2/C1=C/C(=O)c1ccccc1 | 20 µM | > 100 µM | 18.2 µM | > 23.6 µM | 13 µM | 32.1 µM | 3.7 µM | 6.98 µM |  |  |  |  | 
CC1(C)N=C(Oc2ccccc2)n2nccc2N1 | > 100 µM | > 100 µM | > 100 µM | > 100 µM | > 100 µM |  | > 100 µM | > 100 µM | > 100 µM | > 100 µM |  |  | 
CC(=O)Oc1cc(S(=O)(=O)Nc2n[nH]c(N)n2)c(S)cc1Cl | > 100 µM | > 100 µM | > 100 µM | > 100 µM | > 100 µM | > 100 µM | > 100 µM | > 100 µM |  |  |  |  | 
CC1(C)CC2(C)ON=C(c3ccccc3)N2c2ccccc2N1 (stereo not drawn) | 60.2 µM | 52.3 µM | 33.7 µM | 93 µM | 40.1 µM | 56.7 µM | 91.8 µM | 43.6 µM |  |  |  |  | 
COc1nc(OC)nc(Sc2ccc(Sc3ccc(Sc4nc(OC)nc(OC)n4)cc3)cc2)n1 | > 100 µM | > 100 µM | > 100 µM | > 100 µM | > 100 µM |  | > 100 µM | > 100 µM | > 100 µM | > 100 µM |  |  | 
COC(=O)CNCC1OC2OC(C)(C)OC2C1N=[N+]=[N-] (stereo not drawn) | > 100 µM | > 100 µM | > 100 µM | > 100 µM | > 100 µM | > 100 µM | > 100 µM | > 100 µM |  |  |  |  | 
N#CCN(Cc1ccccc1)[C@@H]1CCC[C@]1(O)C#Cc1ccc2c(c1)OCO2 | 77.4 µM | 60.4 µM | 28.9 µM | 42.2 µM | 42.3 µM | 69.5 µM | 57.2 µM | > 100 µM |  |  |  |  | 
Oc1ccccc1-n1nc2ccc3nonc3c2n1 | > 100 µM | > 100 µM | > 100 µM | > 100 µM | > 100 µM | > 100 µM | > 100 µM | > 100 µM |  |  |  |  | 
Cc1ccc(N2C(=O)C(=O)N(/N=C3\C(=O)Nc4ccccc43)C2=S)cc1 | > 100 µM | > 100 µM | > 100 µM | > 100 µM | > 100 µM | > 100 µM | > 100 µM | > 100 µM |  |  |  |  | 
C(=N/NC1=NCCN1)/c1c2ccccc2c(/C=N\NC2=NCCN2)c2ccccc12 | 2.78 µM and 5.02 µM and 6.65 µM | 3.63 µM and 4.43 µM and 1.7 µM | 0.561 µM and 0.449 µM and 1.75 µM | 0.798 µM and 2.11 µM and 1.26 µM | 0.345 µM and 0.857 µM and 0.402 µM | 0.939 µM and 4.13 µM | 4.73 µM and 12.9 µM |  | 27.9 µM and 250 µM |  | 1.32 µM | 0.0504 µM | 0.174 µM
C=CC[C@H]1[C@H](O[Si](C)(C)C(C)(C)C)C=CC(=O)[C@@H]1CC(=O)OCC | 25.1 µM | 20.4 µM | 26.4 µM | 12.2 µM | 30.8 µM | 24.7 µM | 28 µM | 25.6 µM |  |  |  |  | 
Cc1ccc(F)c2c(=O)cc(-c3ccccc3)[nH]c12 | > 100 µM | > 100 µM |  | > 100 µM | > 100 µM |  | > 100 µM | > 100 µM | > 100 µM | > 100 µM |  |  | 
C=CCC1C2CCC(O[Si](C(C)C)(C(C)C)C(C)C)(C(C(=O)OC)C2)C1O (stereo not drawn) | > 100 µM | > 100 µM | > 100 µM | > 100 µM | > 100 µM | > 100 µM | > 100 µM | > 100 µM |  |  |  |  | 
